Assay results as given in US20260041093A1, “Ionic Derivatives Of Aromatic Carboxylic Acid For Use As Plant Stimulants, Method For Stimulating Plants And Use Of These Derivatives For Manufacturing Compositions For Stimulating Plants” (FUNDACJA UNIWERSYTETU IM. ADAMA MICKIEWICZA W POZNANIU, priority 2022, published 2026).
Read-outs that look alike come from different tables or passages of the source.

Experiments:
broccoli = assay: Broccoli seedlings in pots sprayed: height, fresh and dry weight (Example 4); assay type: in vivo
Protocol: Broccoli seedling were planted into pots with peat substrate (P9 pots having 0.5 l). Pots were placed in greenhouse and cultivated for a 1 month. […] 2-fluoroethyl(trimethyl)ammonium benzo[1,2,3]thiadiazole-7-carboxylate; 3. 2-bromoethyl(trimethyl)ammonium benzo[1,2,3]thiadiazole-7-carboxylate; 4. 2-chloroethyl(trimethyl)ammonium benzo[1,2,3]thiadiazole-7-carboxylate; 5. 2-iodoethyl(trimethyl)ammonium benzo[1,2,3]thiadiazole-7-carboxylate used at a concentration of 30 mg/L and 6. 2-hydroxyethyl(trimethyl)ammonium 3-chlorosalicylate (tested also at a concentration of 50 mg/L); 7. 3-chlorosalicylate 2-fluoroethyl(trimethyl)ammonium; 8. 3-chlorosalicylate 2-bromoethyl(trimethyl)ammonium; 9. 3-chlorosalicylate 2-chloroethyl(trimethyl)ammonium; 10. 3-chlorosalicylate 2-iodoethyl(trimethyl)ammonium used at a concentration of 80 mg/L. Plants were sprayed with tested substances three times at 10-day intervals. Plants treated with water only were the untreated control. During the course of the experiment, the height of the plants was measured, and at the end the fresh and dry weight of the aboveground part was evaluated. The experiment was conducted in 4 repetitions with 5 plants in each (a total of 20 plants per each combination).

bell pepper = assay: Bell pepper seedlings in pots sprayed: height, fresh and dry weight (Example 5); assay type: in vivo
Protocol: Pepper seedlings were planted into pots with peat substrate (P9 pots having 0,5 l). Pots were placed in greenhouse and cultivated for a 1 month. […] Plants treated with water only were the untreated control. During the course of the experiment, the height of the plants was measured, and at the end the fresh and dry weight of the aboveground part was evaluated.

tulip = assay: Tulip bulbs in peat watered with working solution: height, stem diameter, weights, root length, flowering, vigor (Example 1); assay type: in vivo; details: 80 mg/L, benzothiadiazole salt 30 mg/L
Protocol: Control plants were watered with distilled water. During the conducted experiment, plant height was measured before each treatment. Flowering length and plant vigor were also studied. After 20 days from the end of the last treatment, the fresh and dry weight of aboveground parts and roots, and root length were assessed.

winter rapeseed = details: for more aboveground dry matter compared to control: last harvest date, fully ripe
Description: The experiment was established using the long strip method in four repetitions. The dimensions of the plots at establishment were 96 m^2 gross, while the harvestable area was 23.25 m^2 net.
In the experiment, uniform NPK fertilization was applied, using both bulk and liquid fertilizers.
The following facilities were included in the experiment: • 1. control, no stimulant application, standard fungicide protection • 2. stimulant applied at stage 31-32 according to the BBCH development scale, standard fungicide protection • 3. stimulant applied at stage 53-55 according to the BBCH development scale, no fungicide protection

tomato = assay: Greenhouse tomato sprayed three times: yield, health-promoting substances, leaf chlorophyll (Example 2); assay type: in vivo; details: 80 mg/L, benzothiadiazole salt 30 mg/L, chitosan lactate 50 mg/L
Protocol: Biostimulant properties were evaluated for the following stimulants: […] The evaluation of stimulant properties included the influence of tested substances on tomato yield, content of health-promoting substances in yield and chlorophyll content in tomato leaves. […] The untreated control plants were sprayed with distilled water. During the experiment, total yield weight, commercial and non-commercial yield and average commercial fruit weight, number of fruits per plant and average fruit weight per plant were evaluated. […] Chlorophyll was measured before each treatment and one day after each treatment using Minolta's SPAD-502 chlorophyll meter.

[1] = 3-chlorosalicylate 80 mg/L, benzothiadiazole salt 30 mg/L
[2] = Table 2, 20 days after last treatment
[3] = Table 3 (title: tulip bulbs / root system)
[4] = BBCH 32, standard fungicide protection, 80 mg/L, benzothiadiazole salt 25 mg/L
[5] = BBCH 32, stimulant only, 80 mg/L, benzothiadiazole salt 25 mg/L
[6] = BBCH 55, standard fungicide protection, 80 mg/L, benzothiadiazole salt 25 mg/L
[7] = BBCH 55, without fungicide, 80 mg/L, benzothiadiazole salt 25 mg/L
[8] = first sampling date, stimulant at BBCH 31-32, no fungicide yet, 80 mg/L, benzothiadiazole salt 25 mg/L
[9] = second date, regardless of cultivation technology, 80 mg/L, benzothiadiazole salt 25 mg/L

For `C[N+](C)(C)CCO.O=C([O-])c1cccc2nnsc12`, the Average dry mass (broccoli; [1]) was 0.7 b g, the Average fresh mass (broccoli; [1]) was 7.8 c g and the “Average plant height, initial height, before first treatment” value (broccoli; [1]) was 39.2 c mm. For the same compound, the “Average plant height, second treatment” value (broccoli; [1]) was 187.2 b mm, the “Average plant height, third treatment” value (broccoli; [1]) was 215.7 b mm and the Plant height increase (broccoli; [1]) was 176.5 b mm. For the same compound, the “number of leaves developed” value (broccoli; FIG. 2, treated once, 5 mg/L, control plant developed 3 leaves) was 4, the Average dry mass (bell pepper; 20 mg/L) was 13.3 c g and the Average fresh mass (bell pepper; 20 mg/L) was 94.6 c g. The “Average plant height, initial height, before first treatment” value (bell pepper; 20 mg/L) was 43.5 b mm, the “Average plant height, second treatment” value (bell pepper; 20 mg/L) was 150.8 b mm and the “Average plant height, third treatment” value (bell pepper; 20 mg/L) was 226.6 c mm. The Plant height increase (bell pepper; 20 mg/L) was 183.1 c mm, the Average dry mass (bell pepper; [1]) was 15.6 g·days and the Average fresh mass (bell pepper; [1]) was 115.5 g·days. The “Average plant height, initial height, before first treatment” value (bell pepper; [1]) was 39.9 a mm, the “Average plant height, second treatment” value (bell pepper; [1]) was 142.9 a mm and the “Average plant height, third treatment” value (bell pepper; [1]) was 270.8 d mm. The Plant height increase (bell pepper; [1]) was 230.9 d mm, the “Average stem diameter at the end of the experiment 20 days after the 4th treatment” value (tulip) was 8.3 b mm and the Flowering length (tulip) was 23 days. For the same compound, the Root length (tulip) was 84.7 b mm, the “Vigor [on a scale from 1 to 5]” value (tulip; 1 is a laying plant, 5 is a stiff plant) was 4.9 b and the “Average dry weight of the above-ground part” value (tulip; [2]) was 44.1 b g. For the same compound, the “Average fresh weight of the above-ground part” value (tulip; [2]) was 435.7 b g, the “Average dry weight of the above-ground part” value (tulip; [3]) was 5.7 b g and the “Average fresh weight of the above-ground part” value (tulip; [3]) was 61.0 b g. For the same compound, the “Average plant height, initial height, first treatment” value (tulip; before 1st watering) was 46.4 a mm, the “Average plant height, second treatment” value (tulip; before 2nd watering) was 133.6 b mm and the “Average plant height, third treatment” value (tulip; before 3rd watering) was 271.2 b mm. For the same compound, the “Average plant height, fourth treatment” value (tulip; before 4th watering) was 375.6 b mm, the “Average plant height, 20 days after the 4th treatment” value (tulip; end of experiment) was 518.0 b mm and the “increase in calcium uptake” value (winter rapeseed; [4]) was 5%. For the same compound, the “increase in magnesium uptake” value (winter rapeseed; [4]) was 5%, the “increase in nitrogen uptake” value (winter rapeseed; [4]) was 5% and the “increase in phosphorus uptake” value (winter rapeseed; [4]) was 5%. For the same compound, the “increase in potassium uptake” value (winter rapeseed; [4]) was 6%, the “increase in calcium uptake” value (winter rapeseed; [5]) was 9% and the “increase in magnesium uptake” value (winter rapeseed; [5]) was 11%. The “increase in nitrogen uptake” value (winter rapeseed; [5]) was 8%, the “increase in phosphorus uptake” value (winter rapeseed; [5]) was 9% and the “increase in potassium uptake” value (winter rapeseed; [5]) was 7%. For the same compound, the higher fat content (winter rapeseed; BBCH 32, with fungicide, 80 mg/L, benzothiadiazole salt 25 mg/L) was 6%, the higher fat content (winter rapeseed; BBCH 32, without fungicide, 80 mg/L, benzothiadiazole salt 25 mg/L) was 8% and the “increase in calcium uptake” value (winter rapeseed; [6]) was 10%. For the same compound, the “increase in fat content” value (winter rapeseed; [6]) was 6%, the “increase in magnesium uptake” value (winter rapeseed; [6]) was 9% and the “increase in nitrogen uptake” value (winter rapeseed; [6]) was 9%. The “increase in phosphorus uptake” value (winter rapeseed; [6]) was 11%, the “increase in potassium uptake” value (winter rapeseed; [6]) was 8% and the “increase in calcium uptake” value (winter rapeseed; [7]) was 9%. The “increase in fat content” value (winter rapeseed; [7]) was “increase”, the “increase in magnesium uptake” value (winter rapeseed; [7]) was 13% and the “increase in nitrogen uptake” value (winter rapeseed; [7]) was 12%. For the same compound, the “increase in phosphorus uptake” value (winter rapeseed; [7]) was 9%, the “increase in potassium uptake” value (winter rapeseed; [7]) was 8% and the “seed yields higher compared to control” value (winter rapeseed; both fungicide and stimulant treatments, 80 mg/L, benzothiadiazole salt 25 mg/L) was 12%. For the same compound, the “chlorophyll content, differences between the tested objects” value (winter rapeseed; first measurement date) was “no differences were observed”, the “more biomass (dry weight) compared to control” value (winter rapeseed; [8]) was 29% and the “more biomass (fresh weight) compared to control” value (winter rapeseed; [8]) was 28%. For the same compound, the “more aboveground dry matter compared to control” value (winter rapeseed; only the stimulant, 80 mg/L, benzothiadiazole salt 25 mg/L) was 32%, the “more aboveground dry matter compared to control” value (winter rapeseed; with fungicide protection, 80 mg/L, benzothiadiazole salt 25 mg/L) was 38% and the “more dry weight compared to control, on average” value (winter rapeseed; [9]) was 26%. The “more fresh weight compared to control, on average” value (winter rapeseed; [9]) was 24%, the “weight of one thousand seeds higher compared to control” value (winter rapeseed; tested combinations, 80 mg/L, benzothiadiazole salt 25 mg/L) was 12% and the “more chlorophyll in the leaves (SPAD) compared to control” value (“more chlorophyll … compared to control” below) (winter rapeseed; with a fungicide, printed 'first date' (of second and third measurement dates), 80 mg/L, benzothiadiazole salt 25 mg/L) was 6%. The “more chlorophyll … compared to control” value (winter rapeseed; with a fungicide, printed 'second date', 80 mg/L, benzothiadiazole salt 25 mg/L) was 8%, the “more chlorophyll … compared to control” value (winter rapeseed; without a fungicide, printed 'first date', 80 mg/L, benzothiadiazole salt 25 mg/L) was 8% and the “more chlorophyll … compared to control” value (winter rapeseed; without a fungicide, printed 'second date', 80 mg/L, benzothiadiazole salt 25 mg/L) was 12%. The “seed yields higher compared to control” value (winter rapeseed; without fungicide protection, stimulant at BBCH 31-32, 80 mg/L, benzothiadiazole salt 25 mg/L) was 9%, the “Chlorophyll content (SPAD), a day after treatment #1” value (tomato) was 63.5 b and the “Chlorophyll content (SPAD), a day after treatment #2” value (tomato) was 61.3 b. The “Chlorophyll content (SPAD), a day after treatment #3” value (tomato) was 63.2 b, the “Chlorophyll content (SPAD), Treatment #1” value (tomato; before treatment #1) was 51.2 a and the “Chlorophyll content (SPAD), Treatment #2” value (tomato; before treatment #2) was 51.4 a. The “Chlorophyll content (SPAD), Treatment #3” value (tomato; before treatment #3) was 51.1 a, the “Average fruit weight per plant” value (tomato; spray 3x) was 148.70 b g and the “Average weight of marketable fruit” value (tomato; spray 3x) was 26.13 b kg/m^2. The Commercial yield (tomato; spray 3x) was 18.13 b kg/m^2, the “Number of fruits per plant” value (tomato; spray 3x) was 4.17 b and the Total yield (tomato; spray 3x) was 18.83 b kg/m^2. For the same compound, the Calcium (tomato; tomato fruits) was 91.4 a mg/kg, the Lycopene (tomato; tomato fruits) was 36.5 b mg/kg and the Magnesium (tomato; tomato fruits) was 106.3 b mg/kg. The “Vit. C” value (tomato; tomato fruits) was 200.1 c mg/kg, the “Vit. E” value (tomato; tomato fruits) was 25.9 b mg/kg and the “°Brix (sugar content of the liquid expressed in degree of Brix)” value (tomato; tomato fruits) was 5.92 b g.
